Assay results as given in patent US20060183922A1, “CB2-selective cannabinoid derivatives” (priority 2005, published 2006).
Entries after “also recorded” stand apart in the source; their conditions may differ.

Columns and labels:
[1] = target: T1, CB1 receptor (Rattus norvegicus, UniProt P20272); test: CB1 receptor binding assay, [3H]CP-55,940 displacement, whole brain P2 membranes
T1 construct: except whole brain (rather than cortex only) was used; from tissue; host or cells: whole brain P2 membranes
Protocol: 1. CB1 Assay. [^3H] […] Displacement curves were generated by incubating drugs with 1 nM of [^3H] CP-55,940. The assays were performed in triplicate, and the results represent the combined data from three individual experiments.
CP-55,940 and all cannabinoid analogs were prepared by suspension in assay buffer from a 1 mg/mL ethanolic stock without evaporation of the ethanol (final concentration of no more than 0.4%). […] Displacement IC50 values were originally determined by unweighted least-squares linear regression of log concentration-percent displacement data and then converted to Ki values using the method of Cheng and Prusoff(Cheng, Y. C.; Prusoff, W. H. Biochem. Pharmacol. 1973, 22, 3099.)

[2] = target: T2, human CB2 receptor (transfected human embryonic kidney 293 cells) (Homo sapiens, UniProt P34972); test: CB2 receptor binding assay, [3H]CP-55,940 displacement; details: for Fold selectivity for CB2 over CB1: ratio of CB1 to CB2 affinity
T2 construct: expressed in transfected cells
Protocol: 2. CB2 Assay. Human embryonic kidney 293 cells were maintained in Dulbecco's modified Eagle's medium (DMEM) with 10% fetal clone II (HyClone, Logan Utah) and 5% CO2 at 37° C. in a Forma incubator. Cell lines were created by transfection of CB2pcDNA3 into 293 cells by the Lipofectamine reagent (Life Technologies, Gaithersburg, Md.). The human CB2 cDNA was a gift. Stable transformants were selected in growth medium containing geneticin (1 mg/mL, reagent, Life Technologies, Gaithersburg, Md.). Colonies of about 500 cells were picked (about 2 weeks post transfection) and allowed to expand, then tested for expression of receptor mRNA by northern blot analysis. Cell lines containing moderate to high levels of receptor mRNA were tested for receptor binding properties. Transfected cell lines were maintained in DMEM with 10% fetal clone II plus 0.3-0.5 mg/mL geneticin and 5% CO2 at 37° C. in a Forma incubator.
The current assay is a modification of Compton et al. (Compton, D. R.; Rice, K. C.; De Costa, B. R.; Razdan, R. K.; Melvin, L. S.; Johnson, M. R.; Martin, B. R. J. Pharmacol Exp. Ther. 1993, 265, 218.) Cells were harvested in phosphate-buffered saline containing 1 mM EDTA and centrifuged at 500 g. The cell pellet was homogenized in 10 mL of solution A (50 mM Tris-HCl, 320 mM sucrose, 2 mM EDTA, 5 mM MgCl2, pH 7.4). The homogenate was centrifuged at 1,600×g (10 min), the supernatant saved, and the pellet washed three times in solution A with subsequent centrifugation. The combined supernatants were centrifuged at 100,000×g (60 min). The (P2 membrane) pellet was resuspended in 3 mL of buffer B (50 mM Tris-HCl, 1 mM EDTA, 3 mM MgCl2, pH 7.4) to yield a protein concentration of approximately 1 mg/mL. The tissue preparation was divided into equal aliquots, frozen on dry ice, and stored at −70° C. Binding was initiated by the addition of 40-50 μg membrane protein to silanized tubes containing [^3H]CP-55,940 (102.9 Ci/mmol) and a sufficient volume of buffer C (50 mM Tris-HCl, 1 mM EDTA, 3 mM MgCl2, and 5 mg/mL fatty acid free BSA, pH 7.4) to bring the total volume to 0.5 mL. The addition of 1 μM unlabelled CP-55,940 was used to assess nonspecific binding. Following incubation (30° C. for 1 hour), binding was terminated by the addition of 2 mL of ice cold buffer D (50 mM Tris-HCl, pH 7.4, plus 1 mg/mL BSA) and rapid vacuum filtration through Whatman GF/C filters (pretreated with polyethyleneimine (0.1%) for at least 2 hours). Tubes were rinsed with 2 mL of ice cold buffer D, which was also filtered, and the filters subsequently rinsed twice with 4 mL of ice cold buffer D. Before radioactivity was quantitated by liquid scintillation spectrometry, filters were shaken for 1 hr in 5 mL of scintillation fluid.
CP-55,940 and all cannabinoid analogs were prepared by suspension in assay buffer from a 1 mg/mL ethanolic stock without evaporation of the ethanol (final concentration of no more than 0.4%). Competition assays were conducted with 1 nM [^3H]-CP55,940 and 6 concentrations (0.1 nM to 10 μM displacing ligands). Displacement IC50 values were originally determined by unweighted least-squares linear regression of log concentration-percent displacement data and then converted to Ki values using the method of Cheng and Prusoff(Cheng, Y. C.; Prusoff, W. H. Biochem. Pharmacol. 1973, 22, 3099.)

[3] = system: formalin model of inflammatory pain; test: Formalin model of inflammatory pain; type: in vivo; details: male ICR mice
Protocol: One of the above CB2 selective agonists was chosen for testing in the formalin model of inflammatory pain in mice. Subjects consisted of male ICR mice (Harlan Labs) weighing between 20-25 g. The formalin test was carried out in an open Plexiglas cage, with a mirror placed under the floor to allow an unobstructed view of the paws. Mice were allowed to acclimate for 15 min in the test cage before formalin injection. Each animal was injected with 20 μl of 2.5% formalin in the intraplantar region of the right hindpaw. Mice were then observed 0-5 min (Phase 1) and 20-45 min (Phase 2) post-formalin, and the amount of time spent licking the injected paw was recorded. The drug was injected i.p. 30 min before formalin injection.

[4] = target: CB2 receptor (Homo sapiens, UniProt P34972); details: read-out: Ki for the CB2 receptor; Huffman et al., Biorg. Med. Chem. 1999; cited from earlier work
Sequence of CB2 receptor (P34972 whole entry): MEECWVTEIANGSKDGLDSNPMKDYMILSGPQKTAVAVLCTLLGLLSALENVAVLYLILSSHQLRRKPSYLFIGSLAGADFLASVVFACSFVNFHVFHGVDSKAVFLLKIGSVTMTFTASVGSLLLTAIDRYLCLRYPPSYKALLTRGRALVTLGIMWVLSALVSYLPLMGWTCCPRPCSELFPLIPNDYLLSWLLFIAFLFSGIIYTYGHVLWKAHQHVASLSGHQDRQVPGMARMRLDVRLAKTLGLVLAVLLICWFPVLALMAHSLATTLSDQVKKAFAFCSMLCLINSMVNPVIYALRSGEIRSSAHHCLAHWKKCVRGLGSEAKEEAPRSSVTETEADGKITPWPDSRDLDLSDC

T1 sequence (P20272 whole entry): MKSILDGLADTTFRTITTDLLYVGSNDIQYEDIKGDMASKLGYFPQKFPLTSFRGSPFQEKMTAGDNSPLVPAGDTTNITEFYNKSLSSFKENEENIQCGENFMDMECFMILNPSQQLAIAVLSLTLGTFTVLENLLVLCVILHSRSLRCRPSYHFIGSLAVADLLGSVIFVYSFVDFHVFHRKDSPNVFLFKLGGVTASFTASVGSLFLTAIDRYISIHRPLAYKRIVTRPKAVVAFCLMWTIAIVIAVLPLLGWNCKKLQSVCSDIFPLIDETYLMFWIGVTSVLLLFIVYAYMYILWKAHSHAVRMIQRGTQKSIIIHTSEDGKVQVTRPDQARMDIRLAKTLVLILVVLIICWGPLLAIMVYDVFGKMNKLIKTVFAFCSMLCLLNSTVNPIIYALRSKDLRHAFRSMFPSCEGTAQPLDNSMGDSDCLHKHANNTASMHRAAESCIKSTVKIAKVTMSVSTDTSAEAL
T2 sequence (P34972 whole entry): as the sequence (P34972 whole entry) above

SMILES | Ki [1] [nM] | Ki [2] [nM] | Fold selectivity for CB2 over CB1 [2] [fold] | pain response (time spent licking injected paw) ([3]; 20 mg/kg i.p. 30 min before formalin, listed as JWH-350) | nociception, dose dependence ([3]; i.p. 30 min before formalin) | Ki [4] [nM]
CC[C@H](C)Cc1ccc2c(c1)OC(C)(C)[C@@H]1CC=C(C)C[C@@H]21 [Compound 352, 1-Deoxy-3-(2′S-methylbutyl)-Δ^8-tetrahydrocannabinol] | > 10000 | 46.5 ± 2.16 | 213 |  |  | 
CC[C@@H](C)Cc1cc(OC)c2c(c1)OC(C)(C)[C@@H]1CC=C(C)C[C@@H]21 [Compound 359, 1-Methoxy-3-(2′R-methylbutyl)-Δ^8-tetrahydrocannabinol] | 2920 ± 450 | 13.3 ± 0.15 | 219 |  |  | 
CC[C@@H](C)Cc1ccc2c(c1)OC(C)(C)[C@@H]1CC=C(C)C[C@@H]21 [Compound 353, 1-Deoxy-3-(2′R-methylbutyl)-Δ^8-tetrahydrocannabinol] | 1493 ± 10 | 31.3 ± 0.78 | 48 |  |  | 
CCCCCC(C)(C)c1cc(OC)c2c(c1)OC(C)(C)[C@@H]1CC[C@H](O)C[C@@H]21 [Compound 349, 9α-Hydroxy-1-methoxy-3-(1′,1′dimethylhexyl)-11-nor-hexahydrocannabinol] | 375.7 ± 0.7 | 38 ± 4.3 | 10 |  |  | 
CCCCCC(C)(C)c1cc(OC)c2c(c1)OC(C)(C)[C@@H]1CC[C@@H](O)C[C@@H]21 [Compound 350, 9β-Hydroxy-1-methoxy-3-(1′,1′dimethylhexyl)-11-nor-hexahydrocannabinol] | 395 ± 19.8 | 11.8 ± 1.03 | 33 | completely inhibited pain response; also recorded: completely eliminating the pain response | inhibits nociception in a dose-dependent manner | 
CCCCC(C)(C)c1cc(OC)c2c(c1)OC(C)(C)[C@@H]1CC[C@@H](O)C[C@@H]21 [Compound 299, 1-Deoxy-9β-hydroxy-1-methoxy-3-(1′,1′dimethylpentyl)-11-nor-hexahydrocannabinol] | 415 ± 49.8 | 29.8 ± 1.77 | 14 |  |  | 
CCCC(C)(C)c1ccc2c(c1)OC(C)(C)[C@@H]1CC[C@@H](O)C[C@@H]21 [Compound 310, 1-Deoxy-9β-hydroxy-3-(1′,1′dimethylbutyl)-11-nor-hexahydrocannabinol] | 1060 | 36.1 ± 2.8 | 29 |  |  | 
CCC[C@H](C)Cc1ccc2c(c1)OC(C)(C)[C@@H]1CC=C(C)C[C@@H]21 [Compound 255, 1-Deoxy-3-(2′S-methylpentyl)-Δ^8-tetrahydrocannabinol] | 4310 ± 649 | 24.3 ± 8.6 | 174 |  |  | 
CCCCCCC(C)(C)c1ccc2c(c1)OC(C)(C)C1CC=C(C)CC21 (stereo not drawn) [1-deoxy-Δ^8-THC-DMH] |  |  |  |  |  | 3
